Assay results from patent US8809550B2, “Androgen receptor antagonists and uses thereof” (priority 2009, dated 2014).
Like-named read-outs stand apart in the source and are kept apart here.

Assays:
[1] = test system: Prostate-specific Antigen (PSA) production in LNCaP cells; assay: PSA assay: inhibition of PSA production in LNCaP cells (ELISA); type: cell-based; conditions: Homo sapiens; for IC50: 72 h, R1881 1 ng/ml, three days, seven point assay
Protocol: (§1) PSA Assay (Inhibition Test of the Compound of the Present Invention on Prostate-Specific Antigen (PSA) Production in Various Prostate Cancer Cells)
(§2) Androgen dependent LNCaP and 22RV1 cells were purchased from the American Type Culture Collection (ATCC, Manassas, Va.). These cells were grown in RPMI 1640 medium supplemented with 10% fetal bovine serum (FBS), 100 U/mL penicillin, 100 μg/mL streptomycin, and 0.25 μg/mL amphotericin B. The cells were maintained at 37° C. and 5% CO2. LNCaP cells between passage 20 and 35, and 22RV1 cells between passage 30 and 50 were used for experiments. LNCaP is a hormone sensitive cell line, while 22RV1 is a hormone refractory prostate cancer cell line, which derived from a primary prostate tumor. This cell line was isolated from a xenograft (CWR22R-2152) that was serially propagated in mice after castration-induced regression and relapse of the parental, androgen-dependent CWR xenograft. For the PSA assay, human prostate cancer cells LNCaP or 22RV1 were seeded in a 96-well plate at a concentration of 5000 cells/100 μl/well. On the following day, Methyltrienolone (R1881, AR agonist) (final concentration 1 ng/ml), test compounds or bicalutamide (Casodex®, AstraZeneca) (final concentration 0.005 to 20 μM) were added. Three days after the addition, the concentration of PSA in the supernatant of the culture solution was measured by ELISA. ELISAs for human PSA in culture medium were performed using the ultra-sensitive assay procedure and reagents in the Active™ PSA assay kit (Diagnostic Systems Laboratories Inc., Webster, Tex.). Culture medium and standards (200 μl/well) were incubated in antibody-coated plates for 2 h at room temperature on a Titer plate shaker at 500-600 rpm. Wells were then washed five times. The HRP conjugate was diluted 1:20 with assay buffer, and 100 μl was added to all wells. The plates were incubated for 30 min at room temperature on the shaker and washed as before, and 100 μl TMB (3,3′,5,5′-tetramethylbenzidine, 0.4 g/l) was added. The plates were incubated for 10 min on the shaker, and the reaction was terminated with 100 μl stop solution. The plates were read using a plate reader at 450 nm with a 650 nm reference filter. PSA levels were normalized for differences in growth of LNCaP or 22RV1 cells following various treatments as determined by the MTS assay. IC50 of PSA was calculated based on a seven point assay (concentrations of tested compound) and expressed as micromolar (uM). Results on 22RV1 cells are shown as percent inhibition at 2 micromolar (uM). ND means not determined

[2] = test system: Prostate-specific Antigen (PSA) production in 22RV1 cells; assay: PSA assay: inhibition of PSA production in 22RV1 cells (ELISA); type: cell-based; conditions: Homo sapiens, 72 h, R1881 1 ng/ml, three days
Protocol: as §1
as §2, with “Results on 22RV1 cells are shown as percent inhibition at 2 micromolar (uM).” left out

[3] = test system: LNCaP cells; assay: Cell viability assay, LNCaP cells; type: cell-based; conditions: Homo sapiens, read-out: Inhibition of cell viability, LNCaP % inhibition at 2.5 uM
Protocol: (§3) LNCaP and 22RV1 cells were maintained in RPMI 1640 medium supplemented with 10% fetal bovine serum (FBS), 100 U/mL penicillin, 100 μg/mL streptomycin, and 0.25 μg/mL amphotericin B, splitting cells when they reached 80-90% confluence. In order to test compounds, 10,000 cells/well were plated in 96 cell culture plates using 100 ul/well plating medium, cultured overnight at 37° C. in a cell culture incubator. After carefully remove plating medium, 80 ul/well of pre-warmed assay medium was added, followed by adding 10 ul/well test compounds or bicalutamide (final concentration from 20 uM to 0.1 uM), incubated at 37° C. for 30 minutes, then adding 10 ul/well freshly prepared Methyltrienolone (R1881, AR agonist) (final concentration 1 ng/ml) to each well, incubate at 37° C. for 48-hour. At the end of incubation, 20 μl MTT (2.5 mg/ml in PBS) was added to each well, and the cells were further incubated for 2 h at 37 C to allow a complete reaction between the dye and the enzyme mitochondrial dehydrogenase in the viable cells. After removal of the residual dye and medium, 100 μl dimethylsulfoxide was added to each well, and the absorbance at 570 nm was measured with an microplate reader. The fold induction over background by 1 nM R1881 in the absence of test compounds is standardized as 100% and experimental result is expressed as percentage of inhibition by testing compounds at 2.5 micromolar (uM).

[4] = test system: 22RV1 cells; assay: Cell viability assay, 22RV1 cells; type: cell-based, human; conditions: for cytotoxicity at 2.5 µM: Homo sapiens, read-out: Inhibition of cell viability, 22RV1 % inhibition at 2.5 uM
Protocol: as §3

[5] = LNCaP cells, 2.5 uM, R1881 1 ng/ml, 48-hour
[6] = 22RV1 cells, 2.5 uM, R1881 1 ng/ml, 48-hour

SMILES	IC50 [1]	inhibition at 2 µM [2]	cytotoxicity at 2.5 µM [3, 5]	cytotoxicity at 2.5 µM [4, 6]	cytotoxicity at 2.5 µM ([3]; LNCaP, 48 h)	cytotoxicity at 2.5 µM ([4]; 22Rv1, 48 h)	inhibition at 1 µM ([1]; 1 micromolar (summary text b205))	Inhibition of cell viability, 22RV1 % inhibition at 2.5 uM [4, 6]
COc1c(C#N)ccc(N2C(=O)C(C)(C)N(c3ccc(C#N)cc3)C2=S)c1F [Example 32, 4-(4,4-Dimethyl-5-oxo-2-thioxo-3-p-cyanophenyl-imidazolidin-1-yl)-3-fluoro-2-methoxy-benzonitrile]	120 nM	88%	87%	64%	–	–	–	–
CNC(=O)c1ccc(N2C(=S)N(c3ccc(C#N)c(Cl)c3F)C(=O)C23CCC3)cc1F [Example 8, 4-[7-(3-Chloro-4-cyano-2-fluoro-phenyl)-8-oxo-6-thioxo-5,7-diaza-spiro[3.4]oct-5-yl]-2-fluoro-N-methyl-benzamide]	850 nM	77%	–	–	86%	59%	–	–
CNC(=O)c1ccc(N2C(=S)N(c3ccc(C#N)c(OC)c3)C(=O)C23CCC3)cc1F [Example 2, 4-[7-(4-Cyano-3-methoxy-phenyl)-8-oxo-6-thioxo-5,7-diaza-spiro[3.4]oct-5-yl]-2-fluoro-N-methyl-benzamide]	450 nM	47%	–	–	59%	41%	–	–
CC(O)(CS(=O)(=O)c1ccc(F)cc1)C(=O)Nc1ccc(C#N)c(C(F)(F)F)c1 (stereo not drawn) [Bicalutamide, bicalutamide, reference compound]	3100 nM	18%	21%	< 10%	–	–	34%	<10%
CNC(=O)c1ccc(N2C(=S)N(c3ccc(C#N)cc3Cl)C(=O)C23CCC3)cc1F [Example 1, 4-[7-(2-Chloro-4-cyano-phenyl)-8-oxo-6-thioxo-5,7-diaza-spiro[3.4]oct-5-yl]-2-fluoro-N-methyl-benzamide]	2400 nM	48%	–	–	70%	31%	–	–
CC1(C)C(=O)N(c2ccc(C#N)c(Cl)c2F)C(=S)N1c1ccc(C#N)cc1 [Example 18, 4-(4,4-Dimethyl-5-oxo-2-thioxo-3-p-cyanophenyl-imidazolidin-1-yl)-3-fluoro-2-chloro-benzonitrile]	92 nM	89%	–	–	91%	57%	–	–
CNC(=O)c1ccc(N2C(=S)N(c3ccc(C#N)c(Cl)c3F)C(=O)C2(C)C)cc1F [Example 11, 4-[3-(3-Chloro-4-cyano-2-fluoro-phenyl)-5,5-dimethyl-4-oxo-2-thioxo-imidazolidin-1-yl]-2-fluoro-N-methyl-benzamide]	230 nM	81%	–	–	85%	56%	–	–
COc1c(C#N)ccc(N2C(=O)C(C)(C)N(c3ccc(C)nc3)C2=S)c1F [Example 20, 4-[4,4-Dimethyl-3-(6-methyl-pyridin-3-yl)-5-oxo-2-thioxo-imidazolidin-1-yl]-3-fluoro-2-methoxy-benzonitrile]	280 nM	69%	–	–	68%	44%	–	–
Cc1ccc(N2C(=S)N(c3ccc(C#N)c(C#N)c3)C(=O)C2(C)C)cc1 [Example 24, 4-(4,4-Dimethyl-5-oxo-2-thioxo-3-p-tolyl-imidazolidin-1-yl)-phthalonitrile]	200 nM	91%	–	–	47%	27%	–	–
CNC(=O)c1ccc(N2C(=S)N(c3ccc(C#N)c(C(F)(F)F)c3F)C(=O)C23CCC3)cc1F [Example 10, 4-[7-(4-Cyano-2-fluoro-3-trifluoromethyl-phenyl)-8-oxo-6-thioxo-5,7-diaza-spiro[3.4]oct-5-yl]-2-fluoro-N-methyl-benzamide]	380 nM	78%	–	–	91%	69%	–	–
